Target: T1, CK1α (Homo sapiens, UniProt P48729+Q96SW2)
T1 construct: expressed in transfected cells
Assay: CK1α ePL degradation assay in MDS-L cells
Type: cell-based
Details: MDS-L cells expressing ePL-tagged CK1α; for DC50: concentration giving 50% CK1α degradation vs DMSO control; for Y: lowest measured CK1α level normalized to DMSO control
Summary of the method: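 MDS-L cells treated with compound in a 10-point, 3-fold series from 10 μM to 0.0005 μM at 37° C, 5% CO2 for the indicated times; CK1α measured by InCELL Hunter enzyme-fragment luminescence. Levels normalized to DMSO as percent of control; lowest level reached taken as Y value.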

T1 sequence (P48729 whole entry): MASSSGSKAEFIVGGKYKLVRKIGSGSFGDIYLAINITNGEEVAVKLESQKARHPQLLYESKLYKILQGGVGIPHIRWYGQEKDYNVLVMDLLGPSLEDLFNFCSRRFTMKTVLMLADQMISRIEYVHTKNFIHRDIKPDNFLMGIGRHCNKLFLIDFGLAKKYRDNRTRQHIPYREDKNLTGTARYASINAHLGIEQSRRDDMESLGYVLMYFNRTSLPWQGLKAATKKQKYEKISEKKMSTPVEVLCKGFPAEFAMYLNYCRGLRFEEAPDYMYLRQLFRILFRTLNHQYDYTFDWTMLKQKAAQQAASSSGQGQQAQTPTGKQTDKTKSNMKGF
T1 sequence (Q96SW2 whole entry): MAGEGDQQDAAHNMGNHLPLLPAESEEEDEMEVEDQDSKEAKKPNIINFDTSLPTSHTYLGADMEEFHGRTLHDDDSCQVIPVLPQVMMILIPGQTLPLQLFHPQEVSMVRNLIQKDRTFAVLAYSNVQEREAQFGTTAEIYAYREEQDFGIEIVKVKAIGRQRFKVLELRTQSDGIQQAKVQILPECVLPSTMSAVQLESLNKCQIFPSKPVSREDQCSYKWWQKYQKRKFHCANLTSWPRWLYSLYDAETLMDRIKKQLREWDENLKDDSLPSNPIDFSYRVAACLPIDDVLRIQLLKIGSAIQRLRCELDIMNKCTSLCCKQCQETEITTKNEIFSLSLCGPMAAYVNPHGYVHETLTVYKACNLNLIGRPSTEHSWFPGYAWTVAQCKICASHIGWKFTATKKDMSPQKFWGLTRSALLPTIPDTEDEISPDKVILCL
T1 sequence (Q16531 whole entry partner): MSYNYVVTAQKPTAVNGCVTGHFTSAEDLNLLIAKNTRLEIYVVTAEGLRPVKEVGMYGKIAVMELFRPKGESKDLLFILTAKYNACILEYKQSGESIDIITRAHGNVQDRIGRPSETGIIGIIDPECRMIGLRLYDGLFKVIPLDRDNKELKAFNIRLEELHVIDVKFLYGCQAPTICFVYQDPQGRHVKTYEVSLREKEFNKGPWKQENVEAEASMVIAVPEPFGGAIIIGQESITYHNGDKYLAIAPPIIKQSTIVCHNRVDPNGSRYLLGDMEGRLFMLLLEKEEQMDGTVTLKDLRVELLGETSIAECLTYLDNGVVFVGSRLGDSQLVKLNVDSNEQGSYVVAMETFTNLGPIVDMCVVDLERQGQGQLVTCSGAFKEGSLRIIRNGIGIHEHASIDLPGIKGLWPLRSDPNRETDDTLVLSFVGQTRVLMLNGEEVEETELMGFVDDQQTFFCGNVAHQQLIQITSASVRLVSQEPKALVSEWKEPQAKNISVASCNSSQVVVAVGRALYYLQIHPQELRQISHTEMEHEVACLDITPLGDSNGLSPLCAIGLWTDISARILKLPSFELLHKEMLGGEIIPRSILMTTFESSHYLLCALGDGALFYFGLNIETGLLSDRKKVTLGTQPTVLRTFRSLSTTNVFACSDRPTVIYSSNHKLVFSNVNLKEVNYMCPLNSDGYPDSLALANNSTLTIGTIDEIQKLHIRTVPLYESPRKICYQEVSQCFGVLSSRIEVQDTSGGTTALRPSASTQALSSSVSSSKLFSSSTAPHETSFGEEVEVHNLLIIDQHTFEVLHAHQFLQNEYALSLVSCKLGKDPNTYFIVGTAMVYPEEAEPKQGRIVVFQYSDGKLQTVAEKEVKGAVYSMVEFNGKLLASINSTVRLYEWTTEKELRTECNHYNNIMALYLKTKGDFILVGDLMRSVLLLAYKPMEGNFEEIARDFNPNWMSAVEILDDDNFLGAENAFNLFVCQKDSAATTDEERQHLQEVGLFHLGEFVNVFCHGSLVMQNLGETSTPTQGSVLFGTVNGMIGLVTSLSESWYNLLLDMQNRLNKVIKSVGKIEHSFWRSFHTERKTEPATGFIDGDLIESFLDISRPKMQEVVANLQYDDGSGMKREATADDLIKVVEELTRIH

| Structure (SMILES) | DC50 [nM] | Y |
| --- | --- | --- |
| CC(C)[C@H](NC(=O)c1ccc2c(c1)CN(C1CCC(=O)NC1=O)C2=O)c1ccc(F)cc1 (stereo partly drawn) [Example 170, 2-(2,6-dioxopiperidin-3-yl)-N-((S)-1-(4-fluorophenyl)-2-methylpropyl)-1-oxoisoindoline-5-carboxamide] | < 100 | * (a Y value (shown as *) of 0<Y≤20%) |
| CC(C)[C@@H](NC(=O)c1ccc2c(c1)CN(C1CCC(=O)NC1=O)C2=O)c1ncccc1Cl (stereo partly drawn) [Example 171, N-((R)-1-(3-chloropyridin-2-yl)-2-methylpropyl)-2-(2,6-dioxopiperidin-3-yl)-1-oxoisoindoline-5-carboxamide] | 100 to 500 | ** (a Y value (shown as**) of 20%<Y≤35%) |
| CC(C)[C@H](NC(=O)c1ccc2c(c1)CN(C1CCC(=O)NC1=O)C2=O)c1ncccc1Cl (stereo partly drawn) [Example 172, N-((S)-1-(3-chloropyridin-2-yl)-2-methylpropyl)-2-(2,6-dioxopiperidin-3-yl)-1-oxoisoindoline-5-carboxamide] | < 100 | * (a Y value (shown as *) of 0<Y≤20%) |
| O=C1CC[C@H](N2Cc3cc(C(=O)N[C@H](c4ncccc4Cl)C(F)(F)F)ccc3C2=O)C(=O)N1 [Example 173, N-((R)-1-(3-chloropyridin-2-yl)-2,2,2-trifluoroethyl)-2-((S)-2,6-dioxopiperidin-3-yl)-1-oxoisoindoline-5-carboxamide] | < 100 | * (a Y value (shown as *) of 0<Y≤20%) |
| O=C1CCC(N2Cc3cc(C(=O)N[C@H](c4ncc(F)cc4Cl)C(F)(F)F)ccc3C2=O)C(=O)N1 (stereo partly drawn) [Example 175, N-((R)-1-(3-chloro-5-fluoropyridin-2-yl)-2,2,2-trifluoroethyl)-2-(2,6-dioxopiperidin-3-yl)-1-oxoisoindoline-5-carboxamide] | < 100 | * (a Y value (shown as *) of 0<Y≤20%) |
| O=C1CCC(N2Cc3cc(C(=O)NC(C4CCC5(CC4)CC(O)C5)C(F)(F)F)ccc3C2=O)C(=O)N1 (stereo not shown) [Example 176, 2-(2,6-dioxopiperidin-3-yl)-1-oxo-N-(2,2,2-trifluoro-1-(2-hydroxyspiro[3.5]nonan-7-yl)ethyl)isoindoline-5-carboxamide] | 100 to 500 | * (a Y value (shown as *) of 0<Y≤20%) |
| CC(C)[C@H](NC(=O)c1ccc2c(c1)CN(C1CCC(=O)NC1=O)C2=O)c1ccc(Cl)cc1 (stereo partly drawn) [Example 177, N-((S)-1-(4-chlorophenyl)-2-methylpropyl)-2-(2,6-dioxopiperidin-3-yl)-1-oxoisoindoline-5-carboxamide] | < 100 | * (a Y value (shown as *) of 0<Y≤20%) |
| O=C1CCC(N2Cc3c(ccc(C(=O)N[C@H](c4ncc(Cl)cc4Cl)C(F)(F)F)c3F)C2=O)C(=O)N1 (stereo partly drawn) [Example 178, N-((R)-1-(3,5-dichloropyridin-2-yl)-2,2,2-trifluoroethyl)-2-(2,6-dioxopiperidin-3-yl)-4-fluoro-1-oxoisoindoline-5-carboxamide] | < 100 | * (a Y value (shown as *) of 0<Y≤20%) |
| O=C1CCC(N2Cc3cc(C(=O)NC(C4CCC5(CC4)CC(O)C5)C(F)(F)F)ccc3C2=O)C(=O)N1 (stereo not shown) [Example 181, 2-(2,6-dioxopiperidin-3-yl)-1-oxo-N-(2,2,2-trifluoro-1-(2-hydroxyspiro[3.5]nonan-7-yl)ethyl)isoindoline-5-carboxamide] | 100 to 500 | * (a Y value (shown as *) of 0<Y≤20%) |
| O=C1CC[C@@H](N2Cc3cc(C(=O)N[C@H](c4ncccc4Cl)C(F)(F)F)ccc3C2=O)C(=O)N1 [Example 182, N-((R)-1-(3-chloropyridin-2-yl)-2,2,2-trifluoroethyl)-2-((R)-2,6-dioxopiperidin-3-yl)-1-oxoisoindoline-5-carboxamide] | < 100 | * (a Y value (shown as *) of 0<Y≤20%) |
| O=C1CCC(N2Cc3c(ccc(C(=O)N[C@H](c4ncc(F)cc4Cl)C(F)(F)F)c3F)C2=O)C(=O)N1 (stereo partly drawn) [Example 183, N-((R)-1-(3-chloro-5-fluoropyridin-2-yl)-2,2,2-trifluoroethyl)-2-(2,6-dioxopiperidin-3-yl)-4-fluoro-1-oxoisoindoline-5-carboxamide] | < 100 | * (a Y value (shown as *) of 0<Y≤20%) |
| O=C1CCC(N2Cc3cc(C(=O)N[C@H](c4ncc(Cl)cc4Cl)C(F)(F)F)ccc3C2=O)C(=O)N1 (stereo partly drawn) [Example 184, N-((R)-1-(3,5-dichloropyridin-2-yl)-2,2,2-trifluoroethyl)-2-(2,6-dioxopiperidin-3-yl)-1-oxoisoindoline-5-carboxamide] | < 100 | * (a Y value (shown as *) of 0<Y≤20%) |
| O=C1CCC(N2Cc3cc(C(=O)N[C@H](CC(F)(F)F)c4ccccc4)ccc3C2=O)C(=O)N1 (stereo partly drawn) [Example 187, 2-(2,6-dioxopiperidin-3-yl)-1-oxo-N-((R)-3,3,3-trifluoro-1-phenylpropyl)isoindoline-5-carboxamide] | 100 to 500 | ** (a Y value (shown as**) of 20%<Y≤35%) |
| O=C1CCC(N2Cc3cc(C(=O)N[C@H](CC(F)(F)F)c4cccc(F)c4)ccc3C2=O)C(=O)N1 (stereo partly drawn) [Example 190, 2-(2,6-dioxopiperidin-3-yl)-1-oxo-N-((R)-3,3,3-trifluoro-1-(3-fluorophenyl)propyl)isoindoline-5-carboxamide] | < 100 | ** (a Y value (shown as**) of 20%<Y≤35%) |
| O=C1CC[C@H](N2Cc3cc(C(=O)N[C@H](c4ncc(Cl)cc4F)C(F)(F)F)ccc3C2=O)C(=O)N1 [Example 193, N-((R)-1-(5-chloro-3-fluoropyridin-2-yl)-2,2,2-trifluoroethyl)-2-((S)-2,6-dioxopiperidin-3-yl)-1-oxoisoindoline-5-carboxamide] | < 100 | * (a Y value (shown as *) of 0<Y≤20%) |
| O=C1CCC(N2Cc3cc(C(=O)N[C@H](CC(F)(F)F)c4ccccc4F)ccc3C2=O)C(=O)N1 (stereo partly drawn) [Example 195, 2-(2,6-dioxopiperidin-3-yl)-1-oxo-N-((R)-3,3,3-trifluoro-1-(2-fluorophenyl)propyl)isoindoline-5-carboxamide] | < 100 | * (a Y value (shown as *) of 0<Y≤20%) |

Further lines, results first:

| DC50 [nM] | Y | Structure (SMILES) |
| --- | --- | --- |
| < 100 | * (a Y value (shown as *) of 0<Y≤20%) | CC(F)(F)C(NC(=O)c1ccc2c(c1)CN(C1CCC(=O)NC1=O)C2=O)c1ccc(F)cc1 (stereo not shown) [Example 174, N-(2,2-difluoro-1-(4-fluorophenyl)propyl)-2-(2,6-dioxopiperidin-3-yl)-1-oxoisoindoline-5-carboxamide] |
| 100 to 500 | * (a Y value (shown as *) of 0<Y≤20%) | O=C1CCC(N2Cc3cc(C(=O)N[C@H](c4ccc(CN5CC6(COC6)C5)cc4)C(F)(F)F)ccc3C2=O)C(=O)N1 (stereo partly drawn) [Example 179, N-((1R)-1-(4-(2-oxa-6-azaspiro[3.3]heptan-6-ylmethyl)phenyl)-2,2,2-trifluoroethyl)-2-(2,6-dioxopiperidin-3-yl)-1-oxoisoindoline-5-carboxamide] |
| < 100 | * (a Y value (shown as *) of 0<Y≤20%) | O=C1CCC(N2Cc3cc(C(=O)N[C@H](c4ccc(CN5CCCC5)cc4)C(F)(F)F)ccc3C2=O)C(=O)N1 (stereo partly drawn) [Example 180, 2-(2,6-dioxopiperidin-3-yl)-1-oxo-N-((R)-2,2,2-trifluoro-1-(4-(pyrrolidin-1-ylmethyl)phenyl)ethyl)isoindoline-5-carboxamide] |
| 100 to 500 | * (a Y value (shown as *) of 0<Y≤20%) | CN1CCN(Cc2ccc([C@@H](NC(=O)c3ccc4c(c3)CN(C3CCC(=O)NC3=O)C4=O)C(F)(F)F)cc2)CC1 (stereo partly drawn) [Example 185, 2-(2,6-dioxopiperidin-3-yl)-1-oxo-N-((R)-2,2,2-trifluoro-1-(4-((4-methylpiperazin-1-yl)methyl)phenyl)ethyl)isoindoline-5-carboxamide] |
| < 100 | * (a Y value (shown as *) of 0<Y≤20%) | CN(C)Cc1ccc([C@@H](NC(=O)c2ccc3c(c2F)CN(C2CCC(=O)NC2=O)C3=O)C(F)(F)F)cc1 (stereo partly drawn) [Example 186, N-((R)-1-(4-((dimethylamino)methyl)phenyl)-2,2,2-trifluoroethyl)-2-(2,6-dioxopiperidin-3-yl)-4-fluoro-1-oxoisoindoline-5-carboxamide] |
| 100 to 500 | ** (a Y value (shown as**) of 20%<Y≤35%) | O=C1CCC(N2Cc3cc(C(=O)N[C@H](c4ccc(CN5CC(F)(F)C5)cc4)C(F)(F)F)ccc3C2=O)C(=O)N1 (stereo partly drawn) [Example 188, N-((R)-1-(4-((3,3-difluoroazetidin-1-yl)methyl)phenyl)-2,2,2-trifluoroethyl)-2-(2,6-dioxopiperidin-3-yl)-1-oxoisoindoline-5-carboxamide] |
| < 100 | * (a Y value (shown as *) of 0<Y≤20%) | O=C1CCC(N2Cc3cc(C(=O)N[C@H](c4ccc(CN5CCC5)cc4)C(F)(F)F)ccc3C2=O)C(=O)N1 (stereo partly drawn) [Example 189, N-((R)-1-(4-(azetidin-1-ylmethyl)phenyl)-2,2,2-trifluoroethyl)-2-(2,6-dioxopiperidin-3-yl)-1-oxoisoindoline-5-carboxamide] |
| 100 to 500 | ** (a Y value (shown as**) of 20%<Y≤35%) | O=C1CCC(N2Cc3cc(C(=O)N[C@H](CC(F)(F)F)c4ccc(F)cc4)ccc3C2=O)C(=O)N1 (stereo partly drawn) [Example 191, 2-(2,6-dioxopiperidin-3-yl)-1-oxo-N-((R)-3,3,3-trifluoro-1-(4-fluorophenyl)propyl)isoindoline-5-carboxamide] |
| < 100 | * (a Y value (shown as *) of 0<Y≤20%) | CN(C)Cc1ccccc1[C@@H](NC(=O)c1ccc2c(c1)CN(C1CCC(=O)NC1=O)C2=O)C(F)(F)F (stereo partly drawn) [Example 192, N-((R)-1-(2-((dimethylamino)methyl)phenyl)-2,2,2-trifluoroethyl)-2-(2,6-dioxopiperidin-3-yl)-1-oxoisoindoline-5-carboxamide] |
| < 100 | ** (a Y value (shown as**) of 20%<Y≤35%) | O=C1CCC(N2Cc3cc(C(=O)N[C@H](CC(F)(F)F)c4cccc(Cl)c4)ccc3C2=O)C(=O)N1 (stereo partly drawn) [Example 194, N-((R)-1-(3-chlorophenyl)-3,3,3-trifluoropropyl)-2-(2,6-dioxopiperidin-3-yl)-1-oxoisoindoline-5-carboxamide] |

Source: patent US11306101B2 (Celgene Corporation, priority 2019, dated 2022)
